Laboratory results: patent US20100255089A1, “Pharmaceutical Compositions and Methods of Using Same” (priority 2006, published 2010)

Assay: physchem
Details: simulated gastric fluid
Protocol: In an uncapped vial, one part of the compound of Formula I is mixed with three, four, six, or nine parts polyvinylpyrrolidone (PVP-25/Kollidon 25), respectively. The mixture is dissolved in a sufficient amount of a mixture of acetone and ethanol, until all powders were in solution. The uncapped vial is placed into a vacuum oven set at 40° C., and let dry for at least 24 hours.
After that treatment, an amorphous state of the powder is achieved, which could be identified, e.g. by X-ray diffraction measurements or by determination of the solubility.

solubility: 0.1 µg/mL
Compound: Cc1cc(C)c2c3ccccc3n(Cc3ccc([C@@H](C(=O)N[C@@H](CO)c4ccccc4)C4CCCC4)cc3)c2n1 [compound of Formula I, (2S)-2-cyclopentyl-2-(4-((2,4-dimethyl-9H-pyrido(2,3-B)indol-9-yl)methyl)-phenyl)-N-((1R)-2-hydroxy-1-phenylethyl)acetamide]
